Results as given in patent US8536332B2, “Modulating signal transduction pathways with substituted pyridol [2,3-b] pyrazines” (Aeterna Zentaris GmbH, priority 2007, dated 2013).

melting point [°C] | SMILES
263 to 265 | COc1cc(-c2ccc3ncc(NC(=O)Nc4ccc(-n5cccc5)cc4)nc3n2)ccc1O [Compound 623, 1-[6-(4-Hydroxy-3-methoxy-phenyl)-pyrido[2,3-b]pyrazin-3-yl]-3-(4-pyrrol-1-yl-phenyl)-urea]
242 to 245 | CCOc1ccc(NC(=O)Nc2cnc3ccc(-c4ccc(O)c(OC)c4)nc3n2)cc1 [Compound 624, 1-(4-Ethoxy-phenyl)-3-[6-(4-hydroxy-3-methoxy-phenyl)-pyrido[2,3-b]pyrazin-3-yl]-urea]
235 to 238 | COc1ccc(NC(=O)Nc2cnc3ccc(-c4ccc(O)c(OC)c4)nc3n2)cc1 [Compound 625, 1-(4-Methoxy-phenyl)-3-[6-(4-hydroxy-3-methoxy-phenyl)-pyrido[2,3-b]pyrazin-3-yl]-urea]
259 to 261 | COc1cc(-c2ccc3ncc(NC(=O)Nc4ccc(C#N)cc4)nc3n2)ccc1O [Compound 626, 1-(4-Cyano-phenyl)-3-[6-(4-hydroxy-3-methoxy-phenyl)-pyrido[2,3-b]pyrazin-3-yl]-urea]
234 to 235 | CCCCCCNC(=O)Nc1cnc2ccc(-c3ccc(O)c(OC)c3)nc2n1 [Compound 627, 1-Hexyl-3-[6-(4-hydroxy-3-methoxy-phenyl)-pyrido[2,3-b]pyrazin-3-yl]-urea]
233 to 235 | COc1cc(-c2ccc3ncc(NC(=O)NC4CCCCCCCCCCC4)nc3n2)ccc1O [Compound 628, 1-Cyclododecyl-3-[6-(4-hydroxy-3-methoxy-phenyl)-pyrido[2,3-b]pyrazin-3-yl]-urea]
233 to 236 | COc1cc(-c2ccc3ncc(NC(=O)NCCCc4ccccc4)nc3n2)ccc1O [Compound 629, 1-[6-(4-Hydroxy-3-methoxy-phenyl)-pyrido[2,3-b]pyrazin-3-yl]-3-(3-phenyl-propyl)-urea]
208 to 210 | COc1cc(-c2ccc3ncc(NC(=O)NCCCCc4ccccc4)nc3n2)ccc1O [Compound 630, 1-[6-(4-Hydroxy-3-methoxy-phenyl)-pyrido[2,3-b]pyrazin-3-yl]-3-(4-phenyl-butyl)-urea]
223 to 226 | CCCCNC(=O)Nc1cnc2ccc(-c3ccc(O)c(OC)c3)nc2n1 [Compound 631, 1-Butyl-3-[6-(4-hydroxy-3-methoxy-phenyl)-pyrido[2,3-b]pyrazin-3-yl]-urea]
214 to 216 | CCN(CC)C(=O)Nc1cnc2ccc(-c3ccc(O)c(OC)c3)nc2n1 [Compound 632, 1,1-Diethyl-3-[6-(4-hydroxy-3-methoxy-phenyl)-pyrido[2,3-b]pyrazin-3-yl]-urea]
226 to 228 | COc1cc(-c2ccc3ncc(NC(=O)N(C)c4ccc(C(C)C)cc4)nc3n2)ccc1O [Compound 635, 3-[6-(4-Hydroxy-3-methoxy-phenyl)-pyrido[2,3-b]pyrazin-3-yl]-1-(4-isopropyl-phenyl)-1-methyl-urea]
250 to 252 | CCNC(=O)Nc1cnc2ccc(-c3cc(C)cc(Br)c3OC)nc2n1 [Compound 639, 1-[6-(3-Bromo-2-methoxy-5-methyl-phenyl)-pyrido[2,3-b]pyrazin-3-yl]-3-ethyl-urea]
262 | CCNC(=O)Nc1cnc2ccc(-c3ccc(OC(F)(F)F)c(F)c3)nc2n1 [Compound 640, 1-Ethyl-3-[6-(3-fluoro-4-trifluoromethoxy-phenyl)-pyrido[2,3-b]pyrazin-3-yl]-urea]
291 | CCNC(=O)Nc1cnc2ccc(-c3ccc(O)c(Br)c3)nc2n1 [Compound 641, 1-[6-(3-Bromo-4-hydroxy-phenyl)-pyrido[2,3-b]pyrazin-3-yl]-3-ethyl-urea]
266 | CCNC(=O)Nc1cnc2ccc(-c3cc(C)c(O)c(Cl)c3)nc2n1 [Compound 642, 1-[6-(3-Chloro-4-hydroxy-5-methyl-phenyl)-pyrido[2,3-b]pyrazin-3-yl]-3-ethyl-urea]
225 | CCNC(=O)Nc1cnc2ccc(-c3ccc(C(=O)O)c(O)c3)nc2n1 [Compound 644]
218 to 219 | CCNC(=S)Nc1cnc2ccc(-c3cc(OC)c(OC)c(OC)c3)nc2n1 [Compound 650, 1-Ethyl-3-[6-(3,4,5-trimethoxy-phenyl)-pyrido[2,3-b]pyrazin-3-yl]-thiourea]
230 to 231 | CCNC(=S)Nc1cnc2ccc(-c3ccc(C)cc3)nc2n1 [Compound 651, 1-Ethyl-3-(6-p-tolyl-pyrido[2,3-b]pyrazin-3-yl)-thiourea]
213 to 215 | COc1cc(-c2ccc3ncc(NC(=S)NC(C)(C)C)nc3n2)ccc1O [Compound 652, 1-tert-Butyl-3-[6-(4-hydroxy-3-methoxy-phenyl)-pyrido[2,3-b]pyrazin-3-yl]-thiourea]
250 to 251 | COc1cc(-c2ccc3ncc(NC(=S)NC4CCCCCCC4)nc3n2)ccc1O [Compound 653, 1-Cyclooctyl-3-[6-(4-hydroxy-3-methoxy-phenyl)-pyrido[2,3-b]pyrazin-3-yl]-thiourea]

Second part, the compound before the results:

SMILES | melting point [°C]
CCCOc1c(C)cc(-c2ccc3ncc(NC(=O)NCC)nc3n2)cc1C [Compound 598, 1-[6-(3,5-Dimethyl-4-propoxy-phenyl)-pyrido[2,3-b]pyrazin-3-yl]-3-ethyl-urea] | 232
CCCCOc1c(C)cc(-c2ccc3ncc(NC(=O)NCC)nc3n2)cc1C [Compound 599, 1-[6-(4-Butoxy-3,5-dimethyl-phenyl)-pyrido[2,3-b]pyrazin-3-yl]-3-ethyl-urea] | 233
COc1cc(-c2ccc3ncc(NC(=O)Nc4ccc(F)cc4)nc3n2)ccc1O [Compound 600, 1-(4-Fluoro-phenyl)-3-[6-(4-hydroxy-3-methoxy-phenyl)-pyrido[2,3-b]pyrazin-3-yl]-urea] | 244 to 246
COc1cc(-c2ccc3ncc(NC(=O)Nc4ccc(N(C)C)cc4)nc3n2)ccc1O [Compound 602, 1-(4-Dimethylamino-phenyl)-3-[6-(4-hydroxy-3-methoxy-phenyl)-pyrido[2,3-b]pyrazin-3-yl]-urea] | 287 to 290
COc1cc(-c2ccc3ncc(NC(=O)N[C@@H]4C[C@H]4c4ccccc4)nc3n2)ccc1O [Compound 603, 1-[6-(4-Hydroxy-3-methoxy-phenyl)-pyrido[2,3-b]pyrazin-3-yl]-3-((1R,2S)-2-phenyl-cyclopropyl)-urea] | 233 to 236
COc1cc(-c2ccc3ncc(NC(=O)NC4CCCCCCC4)nc3n2)ccc1O [Compound 604, 1-Cyclooctyl-3-[6-(4-hydroxy-3-methoxy-phenyl)-pyrido[2,3-b]pyrazin-3-yl]-urea] | 232 to 234
COc1cc(-c2ccc3ncc(NC(=O)NC4CCN(C(=O)OCc5ccccc5)CC4)nc3n2)ccc1O [Compound 606, 4-{3-[6-(4-Hydroxy-3-methoxy-phenyl)-pyrido[2,3-b]pyrazin-3-yl]-ureido}-piperidine-1-carboxylic acid benzyl ester] | 210 to 212
COc1cc(-c2ccc3ncc(NC(=O)Nc4ccnc(N5CCOCC5)c4)nc3n2)ccc1O [Compound 607, 1-[6-(4-Hydroxy-3-methoxy-phenyl)-pyrido[2,3-b]pyrazin-3-yl]-3-(2-morpholin-4-yl-pyridin-4-yl)-urea] | 260 to 263
COc1cc(-c2ccc3ncc(NC(=O)Nc4ccc5sccc5c4)nc3n2)ccc1O [Compound 609] | 257 to 259
COc1cc(-c2ccc3ncc(NC(=O)Nc4cccnc4)nc3n2)ccc1O [Compound 611, 1-[6-(4-Hydroxy-3-methoxy-phenyl)-pyrido[2,3-b]pyrazin-3-yl]-3-pyridin-3-yl-urea] | 245 to 248
COc1cc(-c2ccc3ncc(NC(=O)NC4CCC(C)CC4)nc3n2)ccc1O (stereo not drawn) [Compound 612, 1-[6-(4-Hydroxy-3-methoxy-phenyl)-pyrido[2,3-b]pyrazin-3-yl]-3-(4-methyl-cyclohexyl)-urea] | 272 to 273
COc1cc(-c2ccc3ncc(NC(=O)NC(C)(C)CC(C)(C)C)nc3n2)ccc1O [Compound 613, 1-[6-(4-Hydroxy-3-methoxy-phenyl)-pyrido[2,3-b]pyrazin-3-yl]-3-(1,1,3,3-tetramethyl-butyl)-urea] | 232 to 236
COc1cc(-c2ccc3ncc(NC(=O)Nc4ccc([N+](=O)[O-])cc4)nc3n2)ccc1O [Compound 616, 1-[6-(4-Hydroxy-3-methoxy-phenyl)-pyrido[2,3-b]pyrazin-3-yl]-3-(4-nitro-phenyl)-urea] | 247 to 250
COc1cc(-c2ccc3ncc(NC(=O)Nc4ccccc4[N+](=O)[O-])nc3n2)ccc1O [Compound 617, 1-[6-(4-Hydroxy-3-methoxy-phenyl)-pyrido[2,3-b]pyrazin-3-yl]-3-(2-nitro-phenyl)-urea] | 220 to 222
COc1cc(-c2ccc3ncc(NC(=O)Nc4cccc([N+](=O)[O-])c4)nc3n2)ccc1O [Compound 618, 1-[6-(4-Hydroxy-3-methoxy-phenyl)-pyrido[2,3-b]pyrazin-3-yl]-3-(3-nitro-phenyl)-urea] | 274 to 276
COc1cc(-c2ccc3ncc(NC(=O)Nc4cccc(-n5cccc5)c4)nc3n2)ccc1O [Compound 619, 1-[6-(4-Hydroxy-3-methoxy-phenyl)-pyrido[2,3-b]pyrazin-3-yl]-3-(3-pyrrol-1-yl-phenyl)-urea] | 214 to 217
COc1cc(-c2ccc3ncc(NC(=O)Nc4ccc(N5CCN(C)CC5)cc4)nc3n2)ccc1O [Compound 620, 1-[6-(4-Hydroxy-3-methoxy-phenyl)-pyrido[2,3-b]pyrazin-3-yl]-3-[4-(4-methyl-piperazin-1-yl)-phenyl]-urea] | 207 to 210
COc1cc(-c2ccc3ncc(NC(=O)Nc4cccc5c4ccn5C)nc3n2)ccc1O [Compound 621, 1-[6-(4-Hydroxy-3-methoxy-phenyl)-pyrido[2,3-b]pyrazin-3-yl]-3-(1-methyl-1H-indol-4-yl)-urea] | 248 to 251
COc1cc(-c2ccc3ncc(NC(=O)Nc4ccc(N5C(=O)C=CC5=O)cc4)nc3n2)ccc1O [Compound 622, 1-[4-(2,5-Dioxo-2,5-dihydro-pyrrol-1-yl)-phenyl]-3-[6-(4-hydroxy-3-methoxy-phenyl)-pyrido[2,3-b]pyrazin-3-yl]-urea] | 290 to 293
